Laboratory results published in BigSolDB 2.1.

Cl.Nc1ccccc1
solubility (mole fraction)
Conditions | 288.15 K | 298.15 K | 308.15 K | 318.15 K | 328.15 K
in ethanol | 0.082 | 0.098 | 0.115 | 0.134 | 0.155
in methanol | 0.144 | 0.165 | 0.188 | 0.208 | 0.23
in n-propanol | 0.047 | 0.057 | 0.07 | 0.083 | 0.098
